Assay [1] has as its target Aedes aegypti AChE1 (AaAChE1) (Aedes aegypti, UniProt Q6A2E2). It counts as biochemical.
Assay [2] deals with Anopheles gambiae AChE1 (AgAChE1) (Anopheles gambiae, UniProt Q869C3). Type of assay: biochemical.
For assay [3], the target named is T1, Anopheles gambiae AChE1-G119S (Anopheles gambiae, UniProt Q869C3, G280S). Type of assay: biochemical.
Assay [4] has as its target T2, Mus musculus AChE (mAChE) (Mus musculus, UniProt P21836). Type of assay: biochemical.
Assay [5] addresses T3, Homo sapiens AChE (hAChE) (Homo sapiens, UniProt P22303). Type of assay: biochemical.
The target of assay [6] is T1, Anopheles gambiae AChE1-G119S. The note with it: cited from earlier work.
In assay [7] the target is T2, Mus musculus AChE (mAChE). Conditions: cited from earlier work.
In assay [8] the target is T3, Homo sapiens AChE (hAChE). Conditions: cited from earlier work.
Assay [9] concerns the target T4, AaAChE1 (Aedes aegypti, UniProt Q6A2E2). The assay can be described thus: biochemical.
Assay [10] addresses T5, mAChE (Mus musculus, UniProt P21836). The note with it: read-out: IC 50-values of reversible inhibitors; cited from earlier work.
Assay [11] addresses T6, hAChE (Homo sapiens, UniProt P22303). Conditions: read-out: IC 50-values of reversible inhibitors; cited from earlier work.
Assay [12] deals with T4, AaAChE1. Type of assay: biochemical.
The target in the next assay is AgAChE1 (Anopheles gambiae, UniProt Q869C3). Type of assay: biochemical.
Assay [13] deals with T7, AgAChE1-G119S (Anopheles gambiae, UniProt Q869C3, G280S). It counts as biochemical.
Assay [14] addresses T5, mAChE. Type of assay: biochemical.
The target in assay [15] is T6, hAChE. It counts as biochemical.
Assay [16] relates to AChE1 vs vertebrate AChEs. It counts as biochemical.
The target of assay [17] is T5, mAChE. The assay can be described thus: biochemical. Conditions: IC 50-values of reversible inhibitors.
Assay [18] has as its target T7, AgAChE1-G119S. Conditions: cited from earlier work.

Where “and” joins values, the source holds several entries; their conditions need not be identical. Equal entries are not always repeated. Where two headings read alike, the source gives them in different places. Marks after values point to notes of the source that are not given here. A value given as a limit tells only on which side of the number the result lay.

In the case of `CC(=O)SCC[N+](C)(C)C` [ATChI, acetylthiocholine iodide], the Km is 25 µM in [1], 27 µM in [2], 84 µM in assay [4] and 146 µM in assay [5]. Further, the Vmax in assay [1] is 406 (389–422) mA/min; in assay [2] it was 528 (505–552) mA/min; in assay [3], 318 (310–326) mA/min; in assay [4], 725 (694–756) mA/min; in assay [5], 821 (782–860) mA/min. In addition, the “Vmax in percent of Vmax(ATChI)” value in [1], in [2], in assay [3], in assay [4] and in [5] was 100^a percent of Vmax(ATChI) throughout. The Kcat in assay [6] is 4^b s^-1; in assay [7], 2333^c s^-1; in assay [8], 6167^d s^-1.
Take `CCCC(=O)SCC[N+](C)(C)C` [BTChI, butyrylthiocholine iodide]: the Km amounted to 45 µM in [1] and 36 µM in assay [2]. Also, the values for the Vmax in [1], in [2] and in [3] were 38 (36–40) mA/min, 58 (55–61) mA/min and 34 (24–45) mA/min, respectively.
In the case of `CCN1CCC[C@@H]1CNC(=O)c1cc([N+](=O)[O-])c(N(C)C)cc1OC` [C5685R], the IC50 is more than 30 µM against AaAChE1 [9], 0.7 µM at mAChE [10] and 1.3 µM at hAChE [11].
As for `CCN1CCC[C@H]1CNC(=O)c1cc([N+](=O)[O-])c(N(C)C)cc1OC` [C5685S], the IC50 on mAChE [10] was 0.7 µM; at hAChE [11], 1.4 µM.
Regarding `CNC(=O)Oc1ccc2c(c1)[C@]1(C)CCN(C)[C@@H]1N2C` [Eserine, eserine], the “ki-values of covalent inhibitors” value is 24.8 (18.1–31.5) μM^-1 min^-1 and 24,8 μM^-1 min^-1 on AaAChE1 [12]; 27.3 (23.8–30.8) μM^-1 min^-1 and 27,26 μM^-1 min^-1 on AgAChE1; 1.18 (0.63–1.72) μM^-1 min^-1 and 1,18 μM^-1 min^-1 on AgAChE1-G119S [13]; 1.36 (1.15–1.56) μM^-1 min^-1 and 1,36 μM^-1 min^-1 at mAChE [14]; 2.66 (2.28–3.05) μM^-1 min^-1 and 2,66 μM^-1 min^-1 on hAChE [15]. Moreover, the “fold more potent on AChE1 than on vertebrate AChEs (k i)” value in assay [16] is recorded as “approximately 10 fold”.
In turn, `CCN(CC)C(C)CN1c2ccccc2Sc2ccccc21` (centres unmarked) [Ethopropazine, ethopropazine] gave an IC50 on mAChE [17] of approximately 1000 µM.
Take `CCC(=O)SCC[N+](C)(C)C` [PTChI, propionylthiocholine iodide]: the Km in assay [1] was 20 µM; in [2] it was 25 µM; in assay [4], 59 µM; in assay [5], 150 µM. Further, the Vmax in assay [1] is given as 266 (258–275) mA/min; in [2], 407 (393–421) mA/min; in assay [3], 105 (87–123) mA/min; in assay [4], 367 (354–380) mA/min; in assay [5], 429 (415–442) mA/min. In addition, the “Vmax in percent of Vmax(ATChI)” value in [1] is reported as 65,5^a percent of Vmax(ATChI); in assay [2] it was 77,1^a percent of Vmax(ATChI); in assay [4], 50,6^a percent of Vmax(ATChI); in assay [5] it was 52,3^a percent of Vmax(ATChI).
For the compound `CNC(=O)Oc1ccccc1OC(C)C` [Propoxur, propoxur], the “ki-values of covalent inhibitors” value is 1.20 (1.05–1.35) μM^-1 min^-1 and 1,2 μM^-1 min^-1 at AaAChE1 [12]; 1.11 (1.02–1.21) μM^-1 min^-1 and 1,11 μM^-1 min^-1 on AgAChE1. In addition, at AgAChE1-G119S [13], the “inhibition of the G119S mutant” value is “only marginal inhibition”. The “fold lower inhibition constants than eserine” value in assay [16] is 15–30 fold. In addition, in [16], the “fold more potent on AChE1 than on vertebrate AChEs (k i)” value is given as “approximately 10 fold”. In addition, the ki on AgAChE1-G119S [18] was 0,00015^b µM^-1 min^-1.
